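Each compound was tested at five concentrations against cells in 96-well plates for 48 hours. GI50: concentration for 50% inhibition of growth.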 The source made the active and inactive calls. No stated cut-off is given here; in the data, active = GI50 up to about 1.1 µM and inactive = higher.
Columns and labels:
Assay in all cases: DTP human tumour cell line panel, 48 h
OVCAR-3 = system: OVCAR-3
A549 = system: A549
LOX IMVI = system: LOX IMVI
SK-MEL-5 = system: SK-MEL-5
MOLT-4 = system: MOLT-4
K562 = system: K562
OVCAR-4 = system: OVCAR-4
SF-295 = system: SF-295
DLD-1 = system: DLD-1
HT-29 = system: HT-29
SW-620 = system: SW-620
DMS-114 = system: DMS-114
NCI-H460 = system: NCI-H460
CCRF-CEM = system: CCRF-CEM
COLO 205 = system: COLO 205
UACC-62 = system: UACC-62
T47D = system: T47D
MCF7 = system: MCF7
MDA-MB-435 = system: MDA-MB-435
NCI/ADR-RES = system: NCI/ADR-RES

Row | SMILES | GI50 (OVCAR-3) | GI50 (A549) | GI50 (LOX IMVI) | GI50 (SK-MEL-5) | GI50 (MOLT-4) | GI50 (K562) | GI50 (OVCAR-4) | GI50 (SF-295) | GI50 (DLD-1) | GI50 (HT-29) | GI50 (SW-620) | GI50 (DMS-114) | GI50 (NCI-H460) | GI50 (CCRF-CEM) | GI50 (COLO 205) | GI50 (UACC-62) | GI50 (T47D) | GI50 (MCF7) | GI50 (MDA-MB-435) | GI50 (NCI/ADR-RES)
1 | C[N+](C)(C)CC1CCC/C1=N/O (centres undefined) | > 100 µM (inactive) | > 100 µM (inactive) | 20.6 µM (inactive) | > 100 µM (inactive) | > 100 µM (inactive) | 23.7 µM (inactive) | > 100 µM (inactive) | > 100 µM (inactive) | > 100 µM (inactive) | 39.3 µM (inactive) | 2.62 µM (inactive) | 20 µM (inactive) | 50.4 µM (inactive) | 17.9 µM (inactive) | 21.5 µM (inactive) | > 100 µM (inactive) |  |  |  | 
2 | Cn1cnc(CCc2ccccc2)n1 | > 100 µM (inactive) | > 100 µM (inactive) | > 100 µM (inactive) | > 100 µM (inactive) | > 100 µM (inactive) | > 100 µM (inactive) | > 100 µM (inactive) | > 100 µM (inactive) | > 100 µM (inactive) | > 100 µM (inactive) | > 100 µM (inactive) | > 100 µM (inactive) | > 100 µM (inactive) | > 100 µM (inactive) | > 100 µM (inactive) | > 100 µM (inactive) |  |  |  | 
3 | CO[C@@]1(c2ccccc2)O[C@H]2OCCC2[C@H]1c1ccc(Cl)cc1 (some centres undefined) | 16.5 µM (inactive) | 32.7 µM (inactive) | 32.4 µM (inactive) | 17 µM (inactive) | 17.9 µM (inactive) | 29.9 µM (inactive) | 26.6 µM (inactive) | 21.3 µM (inactive) | 37.7 µM (inactive) | 20.3 µM (inactive) | 32.7 µM (inactive) | 31.8 µM (inactive) | 23.2 µM (inactive) |  | 20 µM (inactive) | 34.2 µM (inactive) |  |  |  | 
4 | CCCCCCCCCCCCCC(=O)CBr | 18.3 µM (inactive) | 22.5 µM (inactive) | 3.83 µM (inactive) | 12.1 µM (inactive) | 0.764 µM (active) | 3.53 µM (inactive) | 14.2 µM (inactive) | 15.4 µM (inactive) | 11.7 µM (inactive) | 15.9 µM (inactive) | 12 µM (inactive) | 3.9 µM (inactive) | 18 µM (inactive) | 0.467 µM (active) | 14.9 µM (inactive) | 9.79 µM (inactive) | 3.94 µM (inactive) | 13.4 µM (inactive) | 16.7 µM (inactive) | 
5 | O=C(NCCCCCCNC(=O)NC1OCC(O)C(O)C1O)NC1OCC(O)C(O)C1O (centres undefined) | > 100 µM (inactive) | > 100 µM (inactive) | > 100 µM (inactive) | > 100 µM (inactive) | > 100 µM (inactive) | > 100 µM (inactive) | > 100 µM (inactive) | > 100 µM (inactive) | > 100 µM (inactive) | > 100 µM (inactive) | > 100 µM (inactive) | > 100 µM (inactive) | > 100 µM (inactive) | > 100 µM (inactive) | > 100 µM (inactive) | > 100 µM (inactive) |  |  |  | 
6 | Cc1cc(N(CCC#N)CCC#N)ccc1/C=C\C(=O)Nc1ccccc1 | > 100 µM (inactive) | > 100 µM (inactive) | 1.26 µM (inactive) | > 100 µM (inactive) | > 100 µM (inactive) | 1.37 µM (inactive) | 62.4 µM (inactive) | 86.1 µM (inactive) | 8.17 µM (inactive) | 5.92 µM (inactive) | > 100 µM (inactive) | 49.7 µM (inactive) | 71.3 µM (inactive) | > 100 µM (inactive) | > 100 µM (inactive) | 0.931 µM (active) |  |  |  | 
7 | COC(=O)C1CC(=O)CCC1c1ccccc1 (centres undefined) | > 100 µM (inactive) | > 100 µM (inactive) | > 100 µM (inactive) | > 100 µM (inactive) | > 100 µM (inactive) | > 100 µM (inactive) | > 100 µM (inactive) | > 100 µM (inactive) | > 100 µM (inactive) | > 100 µM (inactive) | > 100 µM (inactive) | > 100 µM (inactive) | > 100 µM (inactive) | > 100 µM (inactive) | > 100 µM (inactive) | > 100 µM (inactive) |  |  |  | 
8 | CCOC(=O)C1=C(C)Nc2ccccc2S1 | > 100 µM (inactive) | > 100 µM (inactive) | 94.8 µM (inactive) | > 100 µM (inactive) | 46.1 µM (inactive) | > 100 µM (inactive) | > 100 µM (inactive) | > 100 µM (inactive) | > 100 µM (inactive) | > 100 µM (inactive) | > 100 µM (inactive) | > 100 µM (inactive) | > 100 µM (inactive) | > 100 µM (inactive) | 77.8 µM (inactive) | 3.21 µM (inactive) |  |  |  | 
9 | CC1(OCc2ccccc2)C(=O)N2C1NCC2(C)C (centres undefined) | > 100 µM (inactive) | > 100 µM (inactive) | > 100 µM (inactive) | > 100 µM (inactive) | > 100 µM (inactive) | > 100 µM (inactive) | > 100 µM (inactive) | > 100 µM (inactive) | > 100 µM (inactive) | > 100 µM (inactive) | > 100 µM (inactive) | > 100 µM (inactive) | > 100 µM (inactive) | > 100 µM (inactive) | > 100 µM (inactive) | > 100 µM (inactive) |  |  |  | 
10 | C/C(=C\COc1ccc2ccc(=O)oc2c1)C1=CC(=O)C(C)(C)O1 [GEIPARVARIN] | 3.7 µM (inactive) | 7.67 µM (inactive) | 1.89 µM (inactive) | 3.45 µM (inactive) | 4.14 µM (inactive) | 4.39 µM (inactive) | 3.08 µM (inactive) | 2.43 µM (inactive) | 2.26 µM (inactive) | 4.01 µM (inactive) | 3.43 µM (inactive) | 4.19 µM (inactive) |  | 1.51 µM (inactive) | 4.14 µM (inactive) | 3.94 µM (inactive) | 3.68 µM (inactive) |  | 3.48 µM (inactive) | 2.64 µM (inactive)
11 | CC(=O)OC(C)C1C2=C(C(=O)CC1(C)O)C(=O)c1c(ccc(-c3ccc4c(c3O)C(=O)C3=C(C4=O)C(C(C)OC(C)=O)C(C)(O)CC3=O)c1O)C2=O (centres undefined) | 2.2 µM (inactive) | 5.47 µM (inactive) | 1.42 µM (inactive) | 3.19 µM (inactive) | 1.12 µM (inactive) | 0.701 µM (active) | 2.24 µM (inactive) | 11.6 µM (inactive) | 1.11 µM (active) | 1.72 µM (inactive) | 0.667 µM (active) | 0.286 µM (active) | 6.58 µM (inactive) | 0.308 µM (active) | 0.692 µM (active) | 1.69 µM (inactive) | 0.78 µM (active) | 1.53 µM (inactive) | 2.14 µM (inactive) | 15.8 µM (inactive)
12 | Cc1cc(C)nc(NS(=O)(=O)c2ccc(NC(=O)c3ccc(Cl)c4c(Nc5ccc(S(=O)(=O)Nc6cc(C)on6)cc5)c5ccccc5nc34)cc2)n1 | 16.6 µM (inactive) | 19.7 µM (inactive) | 15.8 µM (inactive) | 16.4 µM (inactive) | 22.9 µM (inactive) | 20.9 µM (inactive) | 16.7 µM (inactive) | 18.2 µM (inactive) | 16 µM (inactive) | 19.5 µM (inactive) | 17.3 µM (inactive) | 17.9 µM (inactive) | 18 µM (inactive) |  | 18.1 µM (inactive) | 17.1 µM (inactive) |  |  |  | 
13 | CSc1nc(SC)c2c(C#N)n[nH]c2n1 | > 100 µM (inactive) | > 100 µM (inactive) | > 100 µM (inactive) | > 100 µM (inactive) | > 100 µM (inactive) | > 100 µM (inactive) | > 100 µM (inactive) | > 100 µM (inactive) | > 100 µM (inactive) | > 100 µM (inactive) | > 100 µM (inactive) | > 100 µM (inactive) | > 100 µM (inactive) | > 100 µM (inactive) | > 100 µM (inactive) | > 100 µM (inactive) |  |  |  | 
14 | CC(C)c1cc(C(C)C)c(S(=O)(=O)NN)c(C(C)C)c1 | > 100 µM (inactive) | > 100 µM (inactive) | 42.1 µM (inactive) | > 100 µM (inactive) |  | > 100 µM (inactive) | > 100 µM (inactive) | > 100 µM (inactive) | > 100 µM (inactive) | > 100 µM (inactive) | > 100 µM (inactive) | > 100 µM (inactive) | > 100 µM (inactive) |  | > 100 µM (inactive) | > 100 µM (inactive) |  |  |  | 
